Measured values taken from ChEMBL document CHEMBL4007448, “The derivatives of Pulsatilla saponin A, a bioactive compound from Pulsatilla chinensis: Their synthesis, cytotoxicity, haemolytic toxicity and mechanism of action” (Eur J Med Chem, 2017).
The source made the active and inactive calls. No cut-off for these calls is given here.

What was measured:
BGC-823 = test: Cytotoxicity against human BGC823 cells assessed as reduction in cell viability after 48 hrs by MTT assay; type: functional, cell-based; settings: BGC-823, 48 h
A549 = test: Cytotoxicity against human A549 cells assessed as reduction in cell viability after 48 hrs by MTT assay; type: functional, cell-based; settings: A549, 48 h
SMMC-7721 = test: Cytotoxicity against human SMMC7721 cells assessed as reduction in cell viability after 48 hrs by MTT assay; type: functional, cell-based; settings: SMMC-7721, 48 h
[1] = Hemolytic activity against New Zealand rabbit erythrocytes after 60 mins; type: ADME, cell-based, Oryctolagus cuniculus, Erythrocyte; settings: read-out: HD50
MCF7 = test: Cytotoxicity against human MCF7 cells assessed as reduction in cell viability after 48 hrs by MTT assay; type: functional, cell-based; settings: MCF7, 48 h
KB = test: Cytotoxicity against human KB cells assessed as reduction in cell viability after 48 hrs by MTT assay; type: functional, cell-based
MDA-MB-231 [2] = test: Cytotoxicity against human MDA-MB-231 cells assessed as reduction in cell viability after 48 hrs by MTT assay; type: functional, cell-based; settings: MDA-MB-231, 48 h
[3] = Cytotoxicity against human KBVIN cells assessed as reduction in cell viability after 48 hrs by MTT assay; type: functional, cell-based
MDA-MB-231 [4] = test: Cell cycle arrest in human MDA-MB-231 cells assessed as accumulation at G1 phase at 5.5 uM after 24 hrs by propidium iodide staining based flow cytometry; type: functional
Mus musculus [5] = test: Toxicity in mouse xenografted with […] assessed as hematuria at 60 mg/kg/day, ip for 14 days; type: organism-based; settings: in vivo, 336 h
Blood = test: Drug metabolism in mouse blood assessed as Pulsatilla saponin A formation at 60 mg/kg/day, ip for 14 days; type: ADME, organism-based; settings: in vivo, 336 h
Mus musculus [6] = test: Toxicity in mouse xenografted with […] assessed as death at 60 mg/kg/day, ip for 14 days; type: organism-based; settings: in vivo, 336 h
H22 = test: Antitumor activity against […] xenografted in mouse assessed as tumor growth inhibition at 60 mg/kg/day, ip for 14 days relative to control; type: functional; settings: 336 h, read-out: TGI

SMILES	IC50 (BGC-823) [µM]	IC50 (A549) [µM]	IC50 (SMMC-7721) [µM]	HC50 at 1 h [1] [µM]	further results
C[C@H]1O[C@@H](O[C@H]2[C@H](O[C@H]3CC[C@@]4(C)[C@@H](CC[C@]5(C)[C@@H]4CC(=O)[C@@H]4[C@@H]6CC(C)(C)CC[C@]6(C(=O)NCC(=O)O)CC[C@]45C)[C@]3(C)CO)OC[C@H](O)[C@@H]2O)[C@H](O)[C@H](O)[C@H]1O	86.1	95.8	44	339	–
C[C@H]1O[C@@H](O[C@H]2[C@H](O[C@H]3CC[C@@]4(C)[C@@H](CC[C@]5(C)[C@@H]4CC=C4[C@@H]6CC(C)(C)CC[C@]6(C(=O)NCCCCC(=O)O)CC[C@]45C)[C@]3(C)CO)OC[C@H](O)[C@@H]2O)[C@H](O)[C@H](O)[C@H]1O	67.8	> 100	26.8	228	–
CC(=O)OC[C@@]1(C)[C@@H]2CC[C@]3(C)[C@H](CC(O)[C@]45OC(=O)[C@@]6(CCC(C)(C)C[C@H]64)CC[C@@]35C)[C@@]2(C)CC[C@@H]1O[C@@H]1OC[C@H](OC(C)=O)[C@H](OC(C)=O)[C@H]1O[C@@H]1O[C@H](C)[C@H](OC(C)=O)[C@@H](OC(C)=O)[C@H]1OC(C)=O (stereo partly drawn)	> 100	> 100	90.2	–	–
C[C@H]1O[C@@H](O[C@H]2[C@H](O[C@H]3CC[C@@]4(C)[C@@H](CC[C@]5(C)[C@@H]4CC=C4[C@@H]6CC(C)(C)CC[C@]6(C(=O)NCCCCCC(=O)O)CC[C@]45C)[C@]3(C)CO)OC[C@H](O)[C@@H]2O)[C@H](O)[C@H](O)[C@H]1O	65.5	> 100	27.4	393	–
CC1(C)CC[C@]2(C(=O)O)CC[C@]3(C)C(=CC[C@@H]4[C@@]5(C)CC[C@H](O)[C@@](C)(CO)[C@@H]5CC[C@]43C)[C@@H]2C1 [HEDERAGENIN]	–	10.2	–	> 200	IC50 (MCF7): 39.4 µM; IC50 (KB): 14.6 µM; IC50 (MDA-MB-231 [2]): 36.6 µM; IC50 [3]: 27.9 µM
C[C@H]1O[C@@H](O[C@H]2[C@H](O[C@H]3CC[C@@]4(C)[C@@H](CC[C@]5(C)[C@@H]4C/C(=N/O)[C@@H]4[C@@H]6CC(C)(C)CC[C@]6(C(=O)O)CC[C@]45C)[C@]3(C)CO)OC[C@H](O)[C@@H]2O)[C@H](O)[C@H](O)[C@H]1O	95.6	> 100	69.4	> 500	–
CC(=O)OC[C@@]1(C)[C@@H]2CC[C@]3(C)[C@H](CC=C4[C@@H]5CC(C)(C)CC[C@]5(C(=O)O)CC[C@]43C)[C@@]2(C)CC[C@@H]1O[C@@H]1OC[C@H](OC(C)=O)[C@H](OC(C)=O)[C@H]1O[C@@H]1O[C@H](C)[C@H](OC(C)=O)[C@@H](OC(C)=O)[C@H]1OC(C)=O	74	72.1	69.9	–	–
C[C@H]1O[C@@H](O[C@H]2[C@H](O[C@H]3CC[C@@]4(C)[C@@H](CC[C@]5(C)[C@@H]4C(=O)C=C4[C@@H]6CC(C)(C)CC[C@]6(C(=O)NCC(=O)O)CC[C@]45C)[C@]3(C)CO)OC[C@H](O)[C@@H]2O)[C@H](O)[C@H](O)[C@H]1O	93.7	> 100	46.7	461	–
C[C@H]1O[C@@H](O[C@H]2[C@H](O[C@H]3CC[C@@]4(C)[C@@H](CC[C@]5(C)[C@@H]4C(=O)C=C4[C@@H]6CC(C)(C)CC[C@]6(C(=O)O)CC[C@]45C)[C@]3(C)CO)OC[C@H](O)[C@@H]2O)[C@H](O)[C@H](O)[C@H]1O	82.6	> 100	58.8	> 500	–
C[C@H]1O[C@@H](O[C@H]2[C@H](O[C@H]3CC[C@@]4(C)[C@@H](CC[C@]5(C)[C@@H]4CC(=O)[C@]46OC(=O)[C@@]7(CCC(C)(C)C[C@H]74)CC[C@@]56C)[C@]3(C)CO)OC[C@H](O)[C@@H]2O)[C@H](O)[C@H](O)[C@H]1O	80.3	> 100	70.6	> 500	–
COC(=O)CCN1CCN(C(=O)[C@]23CCC(C)(C)C[C@H]2C2=CC[C@@H]4[C@@]5(C)CC[C@H](OC(C)=O)[C@@](C)(COC(C)=O)[C@@H]5CC[C@@]4(C)[C@]2(C)CC3)CC1	–	4.69	–	> 500	IC50 (MCF7): 10.7 µM; IC50 (KB): 5.08 µM; IC50 (MDA-MB-231 [2]): 5.54 µM; IC50 [3]: 5.25 µM; Activity (MDA-MB-231 [4]): Active
C[C@H]1O[C@@H](O[C@H]2[C@H](O[C@H]3CC[C@@]4(C)[C@@H](CC[C@]5(C)[C@@H]4CC=C4[C@@H]6CC(C)(C)CC[C@]6(C(=O)OCCCCO[N+](=O)[O-])CC[C@]45C)[C@]3(C)CO)OC[C@H](O)[C@@H]2O)[C@H](O)[C@H](O)[C@H]1O	66.5	84.5	22.1	14.9	–
C[C@H]1O[C@@H](O[C@H]2[C@H](O[C@H]3CC[C@@]4(C)[C@@H](CC[C@]5(C)[C@@H]4CC(=O)[C@@H]4[C@@H]6CC(C)(C)CC[C@]6(C(=O)O)CC[C@]45C)[C@]3(C)CO)OC[C@H](O)[C@@H]2O)[C@H](O)[C@H](O)[C@H]1O	77.2	91	53.8	190	–
C[C@@H]1O[C@@H](O[C@H]2[C@H](O[C@H]3CC[C@@]4(C)[C@@H](CC[C@]5(C)[C@@H]4CC=C4[C@@H]6CC(C)(C)CC[C@]6(C(=O)O)CC[C@]45C)[C@]3(C)CO)OC[C@H](O)[C@@H]2O)[C@H](O)[C@@H](O)[C@H]1O	14.6	18.6 to 20.9	12.2	3.86	IC50 (MCF7): 22.2 µM; IC50 (KB): 20.7 µM; IC50 (MDA-MB-231 [2]): 17.8 µM; IC50 [3]: 19.6 µM
CC1(C)CC[C@]2(C(=O)N3CCN(CCC(=O)O)CC3)CC[C@]3(C)C(=CC[C@@H]4[C@@]5(C)CC[C@H](O)[C@@](C)(CO)[C@@H]5CC[C@]43C)[C@@H]2C1	–	31.5	–	> 500	IC50 (MCF7): > 40 µM; IC50 (KB): 15 µM; IC50 (MDA-MB-231 [2]): 32.9 µM; IC50 [3]: > 40 µM
C[C@H]1O[C@@H](O[C@H]2[C@H](O[C@H]3CC[C@@]4(C)[C@@H](CC[C@]5(C)[C@@H]4CC=C4[C@@H]6CC(C)(C)CC[C@]6(C(=O)NCCCC(=O)O)CC[C@]45C)[C@]3(C)CO)OC[C@H](O)[C@@H]2O)[C@H](O)[C@H](O)[C@H]1O	70.2	98.7	27.3	313	–
C[C@H]1O[C@@H](O[C@H]2[C@H](O[C@H]3CC[C@@]4(C)[C@@H](CC[C@]5(C)[C@@H]4CC=C4[C@@H]6CC(C)(C)CC[C@]6(C(=O)OCCCCCCO[N+](=O)[O-])CC[C@]45C)[C@]3(C)CO)OC[C@H](O)[C@@H]2O)[C@H](O)[C@H](O)[C@H]1O	33.1	65.2	15.4	3.79	–
C[C@@H]1O[C@@H](O[C@H]2[C@H](O[C@H]3CC[C@@]4(C)[C@@H](CC[C@]5(C)[C@@H]4CC=C4[C@@H]6CC(C)(C)CC[C@]6(C(=O)NCC(=O)O)CC[C@]45C)[C@]3(C)CO)OC[C@H](O)[C@@H]2O)[C@H](O)[C@@H](O)[C@H]1O	–	–	–	–	Activity (Mus musculus [5]): Non-Toxic; Drug metabolism (Blood): Metabolite_Notdetected; Activity (Mus musculus [6]): Non-Toxic; inhibition in vivo at 60 mg/kg/day (H22): 35.6%
C[C@H]1O[C@@H](O[C@H]2[C@H](O[C@H]3CC[C@@]4(C)[C@@H](CC[C@]5(C)[C@@H]4CC(O)[C@]46OC(=O)[C@@]7(CCC(C)(C)C[C@H]74)CC[C@@]56C)[C@]3(C)CO)OC[C@H](O)[C@@H]2O)[C@H](O)[C@H](O)[C@H]1O (stereo partly drawn)	81.9	> 100	56.6	77.7	–
C[C@H]1O[C@@H](O[C@H]2[C@H](O[C@H]3CC[C@@]4(C)[C@@H](CC[C@]5(C)[C@@H]4CC=C4[C@@H]6CC(C)(C)CC[C@]6(C(=O)OCCO[N+](=O)[O-])CC[C@]45C)[C@]3(C)CO)OC[C@H](O)[C@@H]2O)[C@H](O)[C@H](O)[C@H]1O	33.1	80.2	17.8	16.2	–
C[C@H]1O[C@@H](O[C@H]2[C@H](O[C@H]3CC[C@@]4(C)[C@@H](CC[C@]5(C)[C@@H]4CC=C4[C@@H]6CC(C)(C)CC[C@]6(C(=O)NCC(=O)NCC(=O)O)CC[C@]45C)[C@]3(C)CO)OC[C@H](O)[C@@H]2O)[C@H](O)[C@H](O)[C@H]1O	76.3	> 100	57.8	> 500	–
